Experimental data taken from patent US20100068150A1, “Selective Caspase Inhibitors” (The Board of Trustees of the Leland Stanford Junior …, priority 2006, published 2010).

Columns and labels:
[1] = system: mature downstream caspases (17-22 kDa) in 293 extracts; assay: Intrinsic apoptosis assay in 293 extracts with AB06, KMB01 labeling of mature downstream caspases; type: biochemical; settings: AB06 added at the same time as cytochrome c/dATP
Excerpt: FIGS. 6 A-E illustrate that full-length active caspase-7 has unique inhibitor specificity and is processed to mature forms by downstream executioner caspases. (A) The caspase-3 specific inhibitor causes accumulation of a catalytically active full-length form of caspase-7. Cytosolic extracts from 293 cells were activated with cytochrome c/dATP for the indicated times followed by labeling with KMB01 (left panel) and western blotting with a caspase-7 specific antibody (right panel) as in FIG. 5A. […] (B) The exact same experiment as (A) except extracts from MCF-7 cells were used in place of 293 extracts. (**) indicates forms of caspase-7 that are likely a result of the alternative transcription start site at methionine-45 (C) Quantification of the relative activity of FL-C7 in uninhibited 293 extracts (from FIG. 5A), AB06 treated 293 extracts (from (A)) and uninhibited MCF-7 extracts (from (B)) (D) Inhibitor specificity of full-length and processed forms of caspase-7. Extracts (293) were activated for 5 min with cytochrome c/dATP and then incubated with NP-capped AOMK inhibitors containing the indicated primary amino acid sequences for 5 minutes before KMB01 was added and allowed to label residual caspase active sites for 30 minutes. Samples were analyzed by SDS-PAGE followed by biotin blotting using strepavidin-HRP (left panel) or western blotting for caspase-7 (right panel). […]

[2] = system: endogenous caspases in 293 cytosolic extracts; assay: Direct labeling of endogenous caspases in apoptotic 293 cytosolic extracts; type: binding; settings: 10 min after cytochrome c/dATP; bAB06 and bAB13 at 10 nM to 10 μM
Description: (a.) Hypotonic 293 cytosolic extracts were induced to undergo intrinsic apoptosis by addition of cytochrome c/dATP. KMB01, bAB06 and bAB13 were added 10 minutes after activation and labeling of caspase active sites was carried out for three minutes. Samples were analyzed by SDS-PAGE followed by biotin blotting using streptavidin-HRP. (b) The identity of individual caspases was confirmed via immunoprecipitation using specific anti-sera for caspases-3, 7 and 9 (also see FIG. 5B for immunoprecipitation of caspases-3 and 7 after KMB01 labeling). Extracts (293) were activated with cytochrome c/dATP for 10 minutes, labeled by addition of indicated probes (100 nM final concentration for bAB06 and bAB13 and 10 μM final concentration for KMB01) and labeled caspases precipitated using specific anti-sera as described in the Methods section. […] Labeling of caspases was monitored by SDS-PAGE followed by biotin blotting with streptavidin-HRP. […]
Selective labeling of endogenous caspases in cell extracts and live cells with active site probes was carried out as follows: Hypotonic 293 cytosolic extracts were induced to undergo intrinsic apoptosis by addition of cytochrome c/dATP. […] Samples were analyzed by SDS-PAGE followed by biotin blotting using streptavidin-HRP. […] Labeling of caspases was monitored by SDS-PAGE followed by biotin blotting with streptavidin-HRP. […]

Compound	KMB01 labeling of mature downstream caspases [1]	labeling of endogenous caspases in activated 293 extracts [2]
Cc1cccc(C)c1C(=O)OCC(=O)[C@H](CC(=O)O)NC(=O)[C@@H](NC(=O)[C@H](Cc1ccncc1)NC(=O)[C@H](CC(=O)O)NC(=O)Cc1ccc(O)c([N+](=O)[O-])c1)C(C)C [AB06, Np-D-3-V-D-DMBA]	completely blocked	–
Bio-EVD-AOMK [KMB01, reference compound]	–	labeled a 35 kDa caspase-9 species and the two primary mature forms of caspase3 at 17 and 20 kDa as well the 33 kDa full length N-peptide processed and 20 kDa mature forms of caspase-7
